The source of these data is ChEMBL document CHEMBL5325467, “Discovery of novel hypoxia-activated, nitroimidazole constructed multi-target kinase inhibitors on the basis of AZD9291 for the treatment of human lung cancer” (Bioorg Med Chem, 2023).

For assay [1], the system named is NCI-H1975. The experiment in a line: Antiproliferative activity against human NCI-H1975 cells harboring EGFR L858R/T790M mutant assessed as inhibition of cell growth incubated for 72 hrs under normoxia condition by SRB assay. Type of assay: functional, cell-based. The note with it: NCI-H1975, 72 h.
The subject of assay [2] is NCI-H1975. Kind of assay: Antiproliferative activity against human NCI-H1975 cells harboring EGFR L858R/T790M mutant assessed as inhibition of cell growth incubated for 72 hrs under hypoxia condition by SRB assay. Type of assay: functional, cell-based. The note with it: NCI-H1975, 72 h. For orientation: In SRB staining, fixed cells bind dye roughly in proportion to their protein.

Assay [3] concerns HCC827. Kind of assay: Antiproliferative activity against human HCC827 cells harboring EGFR del19 mutant assessed as inhibition of cell growth incubated for 72 hrs under normoxia condition by SRB assay. Type of assay: functional, cell-based. The note with it: HCC827, 72 h.
The subject of assay [4] is HCC827. The experiment in a line: Antiproliferative activity against human HCC827 cells harboring EGFR del19 mutant assessed as inhibition of cell growth incubated for 72 hrs under hypoxia condition by SRB assay. Type of assay: functional, cell-based. Particulars: HCC827, 72 h.
The target in assay [5] is Epidermal growth factor receptor (Homo sapiens, UniProt P00533, L858R/T790M). Kind of assay: Inhibition of EGFR L858R/T790M mutant (unknown origin) by mobility shift assay.
Chain of Epidermal growth factor receptor (Homo sapiens, UniProt P00533, L858R/T790M) (P00533 25-1210 T790M/L858R limits assumed): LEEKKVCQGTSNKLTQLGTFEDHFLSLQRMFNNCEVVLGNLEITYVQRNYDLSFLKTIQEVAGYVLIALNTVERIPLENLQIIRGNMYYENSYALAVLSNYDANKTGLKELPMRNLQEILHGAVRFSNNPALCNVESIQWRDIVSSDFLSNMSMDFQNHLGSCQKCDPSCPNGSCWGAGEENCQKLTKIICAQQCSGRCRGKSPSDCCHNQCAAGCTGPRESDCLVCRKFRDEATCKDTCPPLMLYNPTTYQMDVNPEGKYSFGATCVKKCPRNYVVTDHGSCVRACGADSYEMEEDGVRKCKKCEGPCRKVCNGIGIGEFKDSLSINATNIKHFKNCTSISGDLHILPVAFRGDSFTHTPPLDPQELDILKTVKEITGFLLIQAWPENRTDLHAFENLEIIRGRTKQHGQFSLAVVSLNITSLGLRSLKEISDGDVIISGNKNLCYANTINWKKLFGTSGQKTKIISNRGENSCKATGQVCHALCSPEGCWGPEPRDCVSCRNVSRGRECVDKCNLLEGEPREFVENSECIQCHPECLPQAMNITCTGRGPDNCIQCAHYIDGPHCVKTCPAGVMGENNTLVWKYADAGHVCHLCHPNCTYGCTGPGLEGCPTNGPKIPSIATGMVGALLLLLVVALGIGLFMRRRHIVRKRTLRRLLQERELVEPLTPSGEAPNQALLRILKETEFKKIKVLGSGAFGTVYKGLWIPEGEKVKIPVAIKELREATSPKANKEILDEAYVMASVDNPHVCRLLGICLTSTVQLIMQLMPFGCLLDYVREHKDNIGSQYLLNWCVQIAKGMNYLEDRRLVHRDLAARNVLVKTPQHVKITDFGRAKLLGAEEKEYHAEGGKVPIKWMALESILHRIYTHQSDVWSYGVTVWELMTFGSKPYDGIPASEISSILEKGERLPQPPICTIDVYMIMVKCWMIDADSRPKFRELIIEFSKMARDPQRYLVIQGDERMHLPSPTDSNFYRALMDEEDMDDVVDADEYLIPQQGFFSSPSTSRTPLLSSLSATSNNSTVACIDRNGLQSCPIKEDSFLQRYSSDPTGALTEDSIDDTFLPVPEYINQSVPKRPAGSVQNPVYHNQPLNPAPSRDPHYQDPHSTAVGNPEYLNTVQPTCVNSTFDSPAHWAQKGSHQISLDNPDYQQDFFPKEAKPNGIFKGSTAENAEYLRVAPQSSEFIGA
The target in assay [6] is Epidermal growth factor receptor (Homo sapiens, UniProt P00533). The experiment in a line: Inhibition of wild type EGFR (unknown origin) by mobility shift assay.
Chain of Epidermal growth factor receptor (Homo sapiens, UniProt P00533) (P00533 whole entry): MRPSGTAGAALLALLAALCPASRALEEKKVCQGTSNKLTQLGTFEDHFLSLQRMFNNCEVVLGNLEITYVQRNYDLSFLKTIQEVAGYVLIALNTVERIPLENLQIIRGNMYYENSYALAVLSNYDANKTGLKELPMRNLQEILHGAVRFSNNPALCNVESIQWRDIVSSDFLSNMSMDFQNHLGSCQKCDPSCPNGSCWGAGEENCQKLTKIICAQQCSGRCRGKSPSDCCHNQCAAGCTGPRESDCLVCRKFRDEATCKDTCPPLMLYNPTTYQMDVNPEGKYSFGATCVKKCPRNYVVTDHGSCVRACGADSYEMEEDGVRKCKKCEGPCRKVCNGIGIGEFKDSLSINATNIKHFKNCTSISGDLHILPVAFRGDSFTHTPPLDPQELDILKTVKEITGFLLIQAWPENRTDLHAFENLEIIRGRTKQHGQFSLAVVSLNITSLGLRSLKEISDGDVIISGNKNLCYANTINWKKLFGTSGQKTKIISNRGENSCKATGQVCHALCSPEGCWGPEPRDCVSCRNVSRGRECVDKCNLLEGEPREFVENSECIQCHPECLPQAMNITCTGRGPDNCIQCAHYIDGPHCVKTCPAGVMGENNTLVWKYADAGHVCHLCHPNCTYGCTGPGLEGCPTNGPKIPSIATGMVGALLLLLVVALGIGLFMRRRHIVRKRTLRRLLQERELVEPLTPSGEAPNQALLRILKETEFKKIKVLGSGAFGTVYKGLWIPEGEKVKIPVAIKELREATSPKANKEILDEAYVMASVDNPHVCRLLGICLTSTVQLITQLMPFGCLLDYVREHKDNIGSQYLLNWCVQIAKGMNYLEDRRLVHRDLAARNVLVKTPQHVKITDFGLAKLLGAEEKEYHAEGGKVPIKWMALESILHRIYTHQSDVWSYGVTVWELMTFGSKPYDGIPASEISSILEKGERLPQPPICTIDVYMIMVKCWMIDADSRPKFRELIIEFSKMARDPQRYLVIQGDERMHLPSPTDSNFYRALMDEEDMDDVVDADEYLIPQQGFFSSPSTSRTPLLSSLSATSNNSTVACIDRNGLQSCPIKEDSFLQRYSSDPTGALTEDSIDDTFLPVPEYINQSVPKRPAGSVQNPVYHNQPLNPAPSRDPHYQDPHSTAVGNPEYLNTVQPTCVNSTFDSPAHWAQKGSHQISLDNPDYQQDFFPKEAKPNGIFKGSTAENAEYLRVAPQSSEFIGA
The nature of assay [7]: Selectivity index, ratio of IC50 for inhibition of wild type EGFR (unknown origin) to IC50 for inhibition of EGFR L858R/T790M mutant (unknown origin).
Assay [8] can be described thus: Ratio of IC50 for antiproliferative activity against human NCI-H1975 cells harboring EGFR L858R/T790M mutant under normoxia condition to IC50 for antiproliferative activity against human NCI-H1975 cells harboring EGFR L858R/T790M mutant under hypoxia condition. Type of assay: functional.
Assay [9] in a line: Ratio of IC50 for antiproliferative activity against human HCC827 cells harboring EGFR del19 mutant under normoxia condition to IC50 for antiproliferative activity against human HCC827 cells harboring EGFR del19 mutant under hypoxia condition. Type of assay: functional.

As usually defined, the IC50 is the concentration needed to halve the response being measured.

Each structure is given as a SMILES string.

Consider `C=CC(=O)Nc1cc(Nc2nccc(-c3cn(C)c4ccccc34)n2)c(OC)cc1N(C)CCN(C)C` [OSIMERTINIB], for which the IC50 in the assay on NCI-H1975 [1] was determined as […]; in the assay with NCI-H1975 [2], […]; in the assay with HCC827 [3] it was 33.7 nM; in the assay on HCC827 [4] it was 32.3 nM.

Consider `Cn1cc(-c2ccnc(Nc3ccc(OCCOCCn4ccnc4[N+](=O)[O-])c(F)c3)n2)c2ccccc21`, for which the IC50 in assay [5] was 722 nM; in assay [6], over 10000 nM. Further, in assay [7], the Ratio IC50 is over 13.8.

Turning to `Cc1ccc(OCCOCCn2ccnc2[N+](=O)[O-])cc1Nc1nccc(-c2cn(C)c3ccccc23)n1`, in assay [5], the IC50 stood at 1310 nM.

For `Cn1cc(-c2ccnc(Nc3cccc(COCCOCCn4ccnc4[N+](=O)[O-])c3)n2)c2ccccc21`, the half-maximal inhibitory concentration (IC50) in assay [5] was determined as 4030 nM.

Turning to `Cn1cc(-c2ccnc(Nc3ccc(OCCCCn4ccnc4[N+](=O)[O-])cc3)n2)c2ccccc21`, the half-inhibitory concentration (IC50) in [5] was 1180 nM.

For `Cn1cc(-c2ccnc(Nc3cccc(OCCCCn4cnc([N+](=O)[O-])c4)c3)n2)c2ccccc21`, the 50% inhibitory concentration (IC50) in [5] turned out to be 233 nM; in assay [6], 1880 nM. Besides, in assay [7], the Ratio IC50 is 8.08.

In the case of `Cn1cc(-c2ccnc(Nc3cccc(OCCCCn4ccnc4[N+](=O)[O-])c3)n2)c2ccccc21`, the IC50 came out at 227 nM in assay [5] and 3570 nM in assay [6]. For the same molecule, the Ratio IC50 in assay [7] was found to be 15.7.

Take `CC(=O)c1ccc(Nc2nccc(-c3cn(C)c4ccccc34)n2)cc1OCCOCCn1ccnc1[N+](=O)[O-]`: the values for the IC50 in [5] and in assay [6] were 262 nM and 7440 nM, respectively. Also, in assay [7], the Ratio IC50 was 28.4.

Take `Cn1cc(-c2ccnc(Nc3ccc(Cl)c(OCCOCCn4ccnc4[N+](=O)[O-])c3)n2)c2ccccc21`: the IC50 in assay [5] was determined as 2670 nM.

For `Cn1cc(-c2ccnc(Nc3cccc(C(=O)NCCOCCn4ccnc4[N+](=O)[O-])c3)n2)c2ccccc21`, the IC50 in assay [5] was 818 nM.

Consider `Cn1cc(-c2ccnc(Nc3ccc(OCCCCn4cnc([N+](=O)[O-])c4)c(F)c3)n2)c2ccccc21`, for which, in assay [5], the IC50 was 829 nM.

In the case of `Cn1cc(-c2ccnc(Nc3cccc(OCCOCCn4ccnc4[N+](=O)[O-])c3)n2)c2ccccc21`, the IC50 in [5] turned out to be 442 nM; in assay [6], 4000 nM. The Ratio IC50 in assay [7] was 9.05.

With `Cc1cc(Nc2nccc(-c3cn(C)c4ccccc34)n2)ccc1OCCOCCn1ccnc1[N+](=O)[O-]`, the 50% inhibitory concentration (IC50) in [5] was 456 nM; in assay [6], 9200 nM. The Ratio IC50 in [7] amounted to 20.2.

In the case of `Cn1cc(-c2ccnc(Nc3cc(OCCOCCn4ccnc4[N+](=O)[O-])ccc3F)n2)c2ccccc21`, the 50% inhibitory concentration (IC50) in [5] was 199 nM; in assay [6] it was 7660 nM; with NCI-H1975 [1] it was 31 nM; in the assay with NCI-H1975 [2] it was 7.59 nM; with HCC827 [3] it was 32.1 nM; with HCC827 [4], 6.28 nM. In addition, the “Ratio IC50” value in assay [8] is 4.08; in [9], 5.11.

Take `Cn1cc(-c2ccnc(Nc3ccc(OCCOCCn4ccnc4[N+](=O)[O-])cc3)n2)c2ccccc21`: the values for the 50% inhibitory concentration (IC50) in assay [5] and in assay [6] were 512 nM and 9370 nM, respectively. The Ratio IC50 in assay [7] amounted to 18.3.
